Results reported in article PMC6273649, “Synthesis of Novel Quaternary Ammonium Salts and Their in Vitro Antileishmanial Activity and U-937 Cell Cytotoxicity” (Molecules, 2016).
Converted amounts (≈) assume the structure as drawn. Read-outs that look alike come from different tables or passages of the source.

How the values were obtained:
[1] = in vitro
Description: (§1) U-937 promonocytes (CRL1593.2™) were obtained from the American Type Culture Collection (ATCC, Manassas, VA, USA), cultured in complete medium containing RPMI 1640 medium (Sigma) supplemented with 10% fetal bovine serum (FBS) (Gibco, Life Technologies, Grand Island, NY, USA) and 1% antibiotics (100 U/mL penicillin and 0.1 mg/mL streptomycin) (Sigma). Cells were maintained in standard conditions at 37 °C, 5% CO2 with change of medium every three days until use.
(§2) The cytotoxicity of compounds was assessed based on the viability of U-937 cells and evaluated by the MTT (3-(4,5-dimethylthiazol-2-yl)-2,5-diphenyltetrazolium bromide) method as described by others. Briefly, into each well of a 96-well cell-culture dishes 100,000 cells/100 μL were dispensed in RPMI-1640 supplemented with 10% FBS and 100 μL of the corresponding concentrations of the corresponding product. Six two fold serial dilutions were tested starting at 200 µg/mL (200, 100, 50, 25, 12.5 and 6.25 μg/mL). Cells were incubated at 37 °C with 5% CO2 for 72 h in the presence of compounds, and then the effect was determined by measuring the activity of the mitochondrial dehydrogenase by adding 10 µL/well of MTT solution (0.5 mg/mL) and incubating at 37 °C for 3 h. The reaction was stopped by adding 100 μL /well of 50% isopropanol solution with 10% sodium dodecyl sulfate for 30 min. Cell growth was determined based on the quantity of formazan produced, which was measured at 570 nm in a plate reader spectrophotometer (Bio-Rad, Hercules, CA, USA). Cells cultured in the absence of products were used as cell growth controls (negative control), while cells cultured in presence of amphotericin B (AmB, Sigma) and meglumine antimoniate (MA, Sanofi-Aventis, Bogotá, Colombia) were used as cytotoxicity controls (positive control). Each concentration was tested in triplicate in at least two independent experiments.
(§3) Cytotoxicity was determined according to the percentages of cell growth (viability) obtained for each tested compound or medium alone. Percentages of viability were calculated first using Equation (1): % Viability = (O.D. of treated cells)/(O.D. of untreated cells) × 100(1) where the O.D. of the untreated cells corresponds to 100% viability. Then, the percentage of cell growth inhibition was calculated using Equation (2): % Cell growth inhibition = 100 − % Viability(2)
(§4) The degree of cytotoxicity was established as convenient according to the LC50 values, using our own scale: high cytotoxicity: LC50 < 100 μg/mL, moderate cytotoxicity: 100 μg/mL < LC50 < 200 μg/mL; and potential non-cytotoxicity: LC50 > 200 μg/mL.

[2] = test system: intracellular amastigotes of L. (V) panamensis-pIR-eGFP; assay: organism not typed; format: cell-based; settings: for EC50: U-937, 72 h, read-out: Intracellular Amastigotes EC50; for degree of leishmanicidal activity, intracellular amastigotes: authors' own scale by EC50
Description: (§5) Virulent L. (V) panamensis MHOM/CO/87/UA140 strain transfected with green fluorescent protein gene called L. (V) panamensis-pIR-eGFP was maintained by successive passaging in golden hamsters (Mesocricetus auratus). Briefly, amastigotes were aspirated from cutaneous lesions of hamsters experimentally infected with promastigotes of L. (V) panamensis-pIR-eGFP. Samples were cultured in biphasic culture with Novy-MacNeal-Nicholle (NNN) medium as solid phase and PBS plus glucose, pH 6.9 as liquid phase and incubated at 26 °C to obtain promastigotes. Medium was changed every week until 2 months.
Intracellular amastigotes were obtained after infection of U-937 cells with promastigotes. Briefly, U-937 cells were dispensed in 24-well plates at a concentration of 300,000 cells/well and were treated with 1 µM of phorbol myristate acetate (PMA) (Sigma) for 48 h at 37 °C. Then, cells were infected with promastigotes in stationary growth phase (day 5) at a ratio of 1:15 cell/parasite and incubated for 3 h at 34 °C in 5% CO2. […] After 24 h of infection, cells were ready to be used in antileishmanial testing assay as described below.
The effect of compounds against intracellular amastigotes of L. (V) panamensis-pIR-eGFP was evaluated by flow cytometry using the methodology described by others. […] Infected and treated cells were maintained at 34 °C and 5% CO2 for 72 h. After 72 h, cells were washed twice with 1 mL of cold PBS and cells were removed from the bottom plate with a trypsin/EDTA ([…]) solution. Recovered cells were centrifuged at 1100 rpm for 10 min at 4 °C, the supernatant was discarded and cells were washed with 1 mL of cold PBS and centrifuged at 1100 rpm for 10 min at 4 °C. Supernatant was discarded and cells were suspended in 500 μL of PBS and analyzed by flow cytometry (FC 500MPL, Cytomics, Brea, CA, USA) using histogram analyses (Figure 2). […] Each concentration of compounds was tested in triplicate in two independent experiments.
The antileishmanial activity in intracellular amastigotes was determined according to the reduction of infected cells and parasite load (viable parasites inside infected cells) obtained for each experimental condition. The percentage of infected cell inhibition and parasite load for each concentration of each compound were calculated first using Equation (3): % infection = (% infected and treated cells ÷ % infected and untreated cells) × 100(3)
And then, the percentage of infection inhibition was calculated using Equation (4): % Inhibition = 100 − % infection(4)

[3] = test system: axenic amastigotes of L. (V) panamensis; assay: organism not typed; format: cell-based; settings: for EC50 / Axenic Amastigotes EC50: 72 h, mean ± standard deviation; for degree of leishmanicidal activity, axenic amastigotes: authors' own scale by EC50
Description: as §5
The axenic amastigotes were obtained from promastigotes cutured in Schneider’s medium, as described elsewhere. Briefly, promastigotes of L. (V) panamensis-pIR-eGFP at 5 × 10^6 parasites/mL were cultured in Schneider medium (Sigma), pH 5.4 supplemented with 20% FBS and 1% antibiotics and incubation at 26 °C. Every three days, medium was changed and temperature was increased one degree each time until it reached 32 °C at which the transformation of the promastigotes into axenic amastigotes is achieved. After three days of growing as axenic amastigotes, parasites were ready to be used in the antileishmanial testing assay as described below.
The ability of compounds to kill axenic amastigotes of L. (V) panamensis was determined based on the viability of the parasites after exposure to each compound evaluated by the MTT method following the methodology described by others. Axenic amastigotes obtained as described above were harvested, washed, and adjusted at 2 × 10^6 parasites/mL in fresh Schneider’s medium with 20% FBS. Into each well of a 96-well plate 100 µL of parasite suspension (2 × 10^5 axenic amastigotes) were dispensed and then 100 µL of each concentration of the corresponding compound were added. […] Plates were incubated at 32 °C. After 72 h of incubation, the effect of each compound was determined by adding 10 µL/well of MTT and incubating at 32 °C for 3 h. The reaction was stopped as described above and the quantity of formazan produced was measured in a plate reader spectrophotometer (Bio-Rad) set at 570 nm. Axenic amastigotes cultivated in the absence of any compound but maintained under the same conditions were used as controls for growth and viability (negative control) while parasites cultivated in the presence of MA were used as controls for leishmanicidal activity (positive control). Assays were performed at least twice with three replicates per each concentration tested.
In turn, activity of compounds with axenic amastigotes was determined according to the reduction of parasite growth percentages obtained for each experimental condition. The percentage of parasite growth was calculated first using Equation (5): % parasite growth = (O.D. treated ax. amastigotes)/(O.D. of untreated ax. amastigotes) × 100(5) where the O.D. of the untreated axenic amastigotes corresponds to 100% parasite growth. Then, the percentage of parasite growth inhibition was calculated using Equation (6): % parasite growth inhibition = 100 − % parasite growth(6)

[4] = test system: U-937 cells; assay: in vitro; settings: U-937 cells
Description: as §1, §2, §3, §4

[5] = L. (V) panamensis in U-937 cells, flow cytometry, 72 h, mean ± standard deviation
[6] = L. (V) panamensis axenic amastigotes, MTT, read-out: Axenic Amastigotes EC50
[7] = L. (V) panamensis axenic amastigotes, MTT

Molecule	CC50 at 72 h [1]	EC50 [2, 5]	EC50 [3, 6]	other results
C[C@@H]1[C@H](O)[C@@H](C)/C=C/C=C/C=C/C=C/C=C/C=C/C=C/[C@H](O[C@@H]2O[C@H](C)[C@@H](O)[C@H](N)[C@@H]2O)C[C@@H]2O[C@](O)(C[C@@H](O)C[C@@H](O)[C@H](O)CC[C@@H](O)C[C@@H](O)CC(=O)O[C@H]1C)C[C@H](O)[C@H]2C(=O)O [AmB, Amphotericin B, reference compound]	–	–	–	CC50 at 72 h ([1]; human): 28.2 ± 0.5 µg/mL (≈ 30.5 µM)
C[N+](C)(CCl)CCC=C(c1ccccc1)c1ccccc1.[I-] [Compound 1a, N-Chloromethyl-N,N-dimethyl-N-(4,4-diphenylbut-3-en-1-yl)ammonium iodide]	44.4 ± 4.9 µg/mL	38.4 ± 0.2 µg/mL	35 ± 5.7 µg/mL	–
C[N+](C)(CCl)CCCC=C(c1ccccc1)c1ccccc1.[I-] [Compound 1b, N-Chloromethyl-N,N-dimethyl-N-(5,5-diphenylpent-4-en-1-yl)ammonium iodide]	21 ± 2 µg/mL	46.8 ± 1.2 µg/mL	56.3 ± 3.7 µg/mL	–
C[N+](C)(CCl)CCCCC=C(c1ccccc1)c1ccccc1.[I-] [Compound 1c, N-Chloromethyl-N,N-dimethyl-N-(6,6-diphenylhex-5-en-1-yl)ammonium iodide]	21 ± 0.5 µg/mL	49.4 ± 3.1 µg/mL	40.5 ± 3.3 µg/mL	–
C[N+](C)(CI)CCC=C(c1ccccc1)c1ccccc1.[I-] [Compound 2a, N-Iodomethyl-N,N-dimethyl-N-(4,4-diphenylbut-3-en-1-yl)ammonium iodide]	46 ± 5.4 µg/mL	27.8 ± 3.9 µg/mL	36.2 ± 0.1 µg/mL	–
C[N+](C)(CI)CCCC=C(c1ccccc1)c1ccccc1.[I-] [Compound 2b, N-Iodomethyl-N,N-dimethyl-N-(5,5-diphenyl-4-penten-1-yl)ammonium iodide]	10.1 ± 0.2 µg/mL	24 ± 0.7 µg/mL	19.7 ± 1.5 µg/mL	–
C[N+](C)(CI)CCCCC=C(c1ccccc1)c1ccccc1.[I-] [Compound 2c, N-Iodomethyl-N,N-dimethyl-N-(6,6-diphenylhex-5-en-1-yl)ammonium iodide]	9.5 ± 0.3 µg/mL	17.6 ± 1 µg/mL	14 ± 0.9 µg/mL	–
C[N+](C)(C)CCC=C(c1ccccc1)c1ccccc1.[I-] [Compound 3a, N,N,N-Trimethyl-N-(4,4-diphenylbut-3-en-1-yl)ammonium iodide]	39.2 ± 4.8 µg/mL	30 ± 1.4 µg/mL	25 ± 0.7 µg/mL	degree of leishmanicidal activity, intracellular amastigotes [2]: moderate (moderate activity: 25 μg/mL < EC50 < 50 μg/mL); degree of leishmanicidal activity, axenic amastigotes [3]: high (high leishmanicidal activity: EC50 < 25 μg/mL)
C[N+](C)(C)CCCC=C(c1ccccc1)c1ccccc1.[I-] [Compound 3b, N,N,N-Trimethyl-N-(5,5-diphenylpent-4-en-1-yl)ammonium iodide]	27.2 ± 0.7 µg/mL	24.7 ± 1.9 µg/mL	25 ± 0.5 µg/mL	–
C[N+](C)(C)CCCCC=C(c1ccccc1)c1ccccc1.[I-] [Compound 3c, N,N,N-Trimethyl-N-(6,6-diphenylhex-5-en-1-yl)ammonium iodide]	12.5 ± 0.8 µg/mL	41.6 ± 2.8 µg/mL	34.1 ± 5.1 µg/mL	–
C[N+](C)(CCl)CCO [Compound 4a, N-Choromethyl-N,N-dimethyl-N-(2-hydroxyet-1-yl)ammonium iodide]	17.9 ± 0.02 µg/mL	29.6 ± 2.8 µg/mL	24.3 ± 1.3 µg/mL	degree of leishmanicidal activity, intracellular amastigotes [2]: moderate (moderate activity: 25 μg/mL < EC50 < 50 μg/mL); degree of leishmanicidal activity, axenic amastigotes [3]: high (high leishmanicidal activity: EC50 < 25 μg/mL)
C[N+](C)(CI)CCO [Compound 4b, N-Iodomethyl-N,N-dimethyl-N-(2-hydroxyet-1-yl)ammonium iodide]	17.8 ± 0.2 µg/mL	23.9 ± 1 µg/mL	19.6 ± 1.8 µg/mL	–
C[N+](C)(C)CCO.[I-] [Compound 4c, (2-Hydroxyethyl)trimethylammonium iodide, reference compound]	372 ± 43.1 µg/mL	–	–	EC50 [2]: 150 ± 17.9 µg/mL; degree of leishmanicidal activity, intracellular amastigotes [2]: almost no activity; EC50 ([3]; read-out: Axenic Amastigotes EC50, L. (V) panamensis axenic amastigotes, MTT, 72 h): < 50 µg/mL; Axenic Amastigotes EC50 [3, 7]: 47.2 ± 7.1 µg/mL; degree of leishmanicidal activity, axenic amastigotes [3]: moderate activity
meglumine antimoniate [MA, reference compound]	–	–	–	Cytotoxicity LC50 ([4]; MTT, 72 h, mean ± standard deviation): 358.2 ± 1.7 µg/mL; degree of cytotoxicity ([4]; authors' own scale by LC50): potentially non-cytotoxic; Intracellular Amastigotes EC50 [2, 5]: 6.33 ± 0.86 µg/mL; Axenic Amastigotes EC50 [3, 7]: 312.1 ± 18.6 µg/mL; degree of leishmanicidal activity, axenic amastigotes [3]: not active
